Molecules are shown by their SMILES. Numbers after ± are expanded uncertainties.

Two compounds from the NIST ThermoML archive (doi:10.1021/je050455+) can be followed below.

For the data set the following is noted: 293.15 K; 101.33 kPa; Liquid; Vibrating tube method.

On to `Cc1n(CCO)cc[n+]1C.F[B-](F)(F)F` [1-(2-hydroxyethyl)-2,3-dimethylimidazolium tetrafluoroborate], for which the mass density – broadly, the mass of a sample divided by its volume – was determined as 1360 ± 20 kg/m3. `C[n+]1ccn(CCO)c1.F[B-](F)(F)F` [1-(2-hydroxyethyl)-3-methylimidazolium tetrafluoroborate]: the mass density was determined as 1330 ± 20 kg/m3.
